Assay results as given in article PMC9518264, “Design and synthesis of novel quinazolinone-based derivatives as EGFR inhibitors with antitumor activity” (Journal of Enzyme Inhibition and Medicinal Chemistry, 2022).

Key:
[1] = tested on: NCI-H226; assay: cells; assay type: cell-based; settings: Homo sapiens, NCI-H226, read-out: growth inhibition % (GI%)
[2] = tested on: NCI-H460; assay: cells; assay type: cell-based; settings: Homo sapiens, NCI-H460, read-out: growth inhibition % (GI%)
[3] = tested on: SK-OV-3; assay: cells; assay type: cell-based; settings: Homo sapiens, SK-OV-3, read-out: growth inhibition % (GI%)
[4] = tested on: NCI-H322M; assay: cells; assay type: cell-based; settings: Homo sapiens, read-out: growth inhibition % (GI%)
[5] = tested on: MALME-3M; assay: cells; assay type: cell-based; settings: Homo sapiens, Malme-3M, read-out: growth inhibition % (GI%)
[6] = tested on: A498; assay: cells; assay type: cell-based; settings: Homo sapiens, A498, read-out: growth inhibition % (GI%)
[7] = tested on: SNB-75; assay: cells; assay type: cell-based; settings: Homo sapiens, SNB-75, read-out: growth inhibition % (GI%)
[8] = tested on: CCRF-CEM; assay: cells; assay type: cell-based; settings: Homo sapiens, read-out: growth inhibition % (GI%)
[9] = tested on: BT-549; assay: cells; assay type: cell-based; settings: Homo sapiens, BT-549, read-out: growth inhibition % (GI%)
[10] = tested on: HCT-15; assay: cells; assay type: cell-based; settings: Homo sapiens, HCT-15, read-out: growth inhibition % (GI%)
[11] = tested on: HL-60(TB); assay: cells; assay type: cell-based; settings: Homo sapiens, HL-60, read-out: growth inhibition % (GI%)
[12] = tested on: EKVX; assay: cells; assay type: cell-based; settings: Homo sapiens, read-out: growth inhibition % (GI%)
[13] = tested on: OVCAR-8; assay: cells; assay type: cell-based; settings: Homo sapiens, OVCAR-8, read-out: growth inhibition % (GI%)
[14] = tested on: OVCAR-3; assay: NCI 60 cell line antiproliferative screening (SRB), Ovarian cancer; settings: Homo sapiens, OVCAR-3, read-out: growth inhibition % (GI%)
[15] = tested on: 786-0; assay: cells; assay type: cell-based; settings: Homo sapiens, 786-0, read-out: growth inhibition % (GI%)
[16] = tested on: HCC-2998; assay: cells; assay type: cell-based; settings: Homo sapiens, HCC 2998, read-out: growth inhibition % (GI%)
[17] = tested on: UACC-257; assay: cells; assay type: cell-based; settings: Homo sapiens, UACC-257, read-out: growth inhibition % (GI%)
[18] = tested on: LOX IMIV; assay: cells; assay type: cell-based; settings: Homo sapiens, 60 cell, read-out: growth inhibition % (GI%)
[19] = tested on: OVCAR-5; assay: cells; assay type: cell-based; settings: Homo sapiens, OVCAR-5, read-out: growth inhibition % (GI%)
[20] = tested on: HCT-116; assay: cells; assay type: cell-based; settings: Homo sapiens, HCT-116, read-out: growth inhibition % (GI%)
[21] = tested on: MOLT-4; assay: cells; assay type: cell-based; settings: Homo sapiens, MOLT-4, read-out: growth inhibition % (GI%)
[22] = tested on: NCI/ADR-RES; assay: cells; assay type: cell-based; settings: Homo sapiens, read-out: growth inhibition % (GI%)
[23] = tested on: DU-145; assay: cells; assay type: cell-based; settings: Homo sapiens, DU-145, read-out: growth inhibition % (GI%)
[24] = tested on: MDA-MB-468; assay: NCI 60 cell line antiproliferative screening (SRB), Breast cancer; settings: Homo sapiens, MDA-MB-468, read-out: growth inhibition % (GI%)
[25] = tested on: TK-10; assay: cells; assay type: cell-based; settings: Homo sapiens, TK-10, read-out: growth inhibition % (GI%)
[26] = tested on: SK-MEL-2; assay: cells; assay type: cell-based; settings: Homo sapiens, SK-MEL-2, read-out: growth inhibition % (GI%)
[27] = tested on: SN12C; assay: cells; assay type: cell-based; settings: Homo sapiens, read-out: growth inhibition % (GI%)
[28] = tested on: T-47D; assay: cells; assay type: cell-based; settings: Homo sapiens, T47D, read-out: growth inhibition % (GI%)
[29] = tested on: ACHN; assay: cells; assay type: cell-based; settings: Homo sapiens, read-out: growth inhibition % (GI%)
[30] = tested on: MCF7; assay: cells; assay type: cell-based; settings: Homo sapiens, MCF7, read-out: growth inhibition % (GI%)
[31] = tested on: panel of 60 tumour cell lines; assay: NCI 60 cell line antiproliferative screening (SRB), whole panel or subpanels (means, ranges, words); assay type: cell-based, human; settings: 10 μM
[32] = tested on: U251; assay: cells; assay type: cell-based; settings: Homo sapiens, U-251, read-out: growth inhibition % (GI%)
[33] = tested on: HOP-62; assay: cells; assay type: cell-based; settings: Homo sapiens, HOP-62, read-out: growth inhibition % (GI%)
[34] = tested on: A549/ATCC; assay: cells; assay type: cell-based; settings: Homo sapiens, A549, read-out: growth inhibition % (GI%)
[35] = tested on: SF-295; assay: cells; assay type: cell-based; settings: Homo sapiens, SF-295, read-out: growth inhibition % (GI%)
[36] = tested on: NCI-H522; assay: cells; assay type: cell-based; settings: Homo sapiens, NCI-H522, read-out: growth inhibition % (GI%)
[37] = tested on: IGROV1; assay: cells; assay type: cell-based; settings: Homo sapiens, IGROV-1, read-out: growth inhibition % (GI%)
[38] = tested on: SF-268; assay: cells; assay type: cell-based; settings: Homo sapiens, SF-268, read-out: growth inhibition % (GI%)
[39] = tested on: PC-3; assay: cells; assay type: cell-based; settings: Homo sapiens, PC-3, read-out: growth inhibition % (GI%)
[40] = tested on: SNB-19; assay: cells; assay type: cell-based; settings: Homo sapiens, SNB-19, read-out: growth inhibition % (GI%)
[41] = tested on: HOP-92; assay: cells; assay type: cell-based; settings: Homo sapiens, HOP-92, read-out: growth inhibition % (GI%)
[42] = tested on: KM12; assay: cells; assay type: cell-based; settings: Homo sapiens, KM12, read-out: growth inhibition % (GI%)
[43] = tested on: SF-539; assay: cells; assay type: cell-based; settings: Homo sapiens, SF-539, read-out: growth inhibition % (GI%)
[44] = tested on: SK-MEL-5; assay: cells; assay type: cell-based; settings: Homo sapiens, SK-MEL-5, read-out: growth inhibition % (GI%)
[45] = tested on: COLO-205; assay: cells; assay type: cell-based; settings: Homo sapiens, COLO 205, read-out: growth inhibition % (GI%)
[46] = tested on: OVCAR-4; assay: cells; assay type: cell-based; settings: Homo sapiens, OVCAR-4, read-out: growth inhibition % (GI%)

Work on `COc1ccc(Oc2ccc(C=NNC(=O)CSc3nc4ccccc4c(=O)n3-c3ccc(Cl)cc3)cc2)cc1` [6f, 2-((3–(4-chlorophenyl)-4-oxo-3,4-dihydroquinazolin-2-yl)thio)-N'-(4–(4-methoxyphenoxy)benzylidene)acetohydrazide] yielded an inhibition at 10 µM [1] of 20.3%, an inhibition at 10 µM [2] of 88.8% and an inhibition at 10 µM [3] of 33.7%. For the same molecule, the inhibition at 10 µM [4] was 15.3%, the inhibition at 10 µM [5] was 36.1% and the inhibition at 10 µM [6] was 27.1%. The inhibition at 10 µM [7] was 58.4%, the inhibition at 10 µM [8] was 36.5% and the inhibition at 10 µM [9] was under 15%. For the same molecule, the inhibition at 10 µM [10] was 44%, the inhibition at 10 µM [11] was under 15% and the inhibition at 10 µM [12] was 30.6%. The inhibition at 10 µM [13] was under 15%, the inhibition at 10 µM [14] was over 100% and the inhibition at 10 µM [15] was 74.8%. The inhibition at 10 µM [16] was 16.6%, the inhibition at 10 µM [17] was under 15% and the inhibition at 10 µM [18] was 85.3%. For the same molecule, the inhibition at 10 µM [19] was 18.8%, the inhibition at 10 µM [20] was 86.7% and the inhibition at 10 µM [21] was 38.3%. The inhibition at 10 µM [22] was 48.9%, the inhibition at 10 µM [23] was 50.8% and the inhibition at 10 µM [24] was 33.2%. The inhibition at 10 µM [25] was under 15%, the inhibition at 10 µM [26] was under 15% and the inhibition at 10 µM [27] was 47.3%. The inhibition at 10 µM [28] was 62.1%, the inhibition at 10 µM [29] was 92.2% and the inhibition at 10 µM [30] was 50.7%. The “GI% range over a subset of cell lines” value ([31]; subset of cell lines whose number is stated in the sentence) was 67.83 to 30.59%, the inhibition at 10 µM ([31]; Homo sapiens, 60 cell, mean over the cell line panel, read-out: Mean growth inhibition % (mean GI%)) was 42.5% and the inhibition at 10 µM [32] was 63.5%. For the same molecule, the inhibition at 10 µM [33] was 26.7%, the inhibition at 10 µM [34] was 53% and the inhibition at 10 µM [35] was 32.3%. The inhibition at 10 µM [36] was 48.7%, the inhibition at 10 µM [37] was 51.4% and the inhibition at 10 µM [38] was 42.1%. It also gave an inhibition at 10 µM [39] of 36.3%, an inhibition at 10 µM [40] of 38.5% and an inhibition at 10 µM [41] of 22.7%. It also gave an inhibition at 10 µM [42] of 22.8%, an inhibition at 10 µM [43] of 67.8% and an inhibition at 10 µM [44] of 22%. It also gave an inhibition at 10 µM [45] of 27.2% and an inhibition at 10 µM [46] of 27.4%.
